Laboratory results reported in publication PMC11642994, “AGC family kinase of Entamoeba histolytica: Decoding the members biochemically” (PLOS Pathogens, 2024).
No end group written: not given here.

Legend:
Format in all cases: binding
EhAGCK1 WT = EhAGCK1 WT (Entamoeba histolytica, UniProt C4M2W0); test: Microscale Thermophoresis (MST), EhAGCK1 WT; conditions: MST, EhAGCK1
Procedure: (§1) Microscale Thermophoresis (MST) was performed in the presence of full-length and kinase-dead EhAGCK1 and EhAGCK2 proteins, along with HsGSK3, EhRhoGEF, and EhCoactosin peptide substrates. Proteins were labelled using a His-tag labelling kit, RED-tris-NTA 2nd Generation (Nano Temper Technologies, San Francisco, CA, USA). A brief labelling reaction was performed in a buffer containing (50 mM Tris-Cl pH 8, 150 mM NaCl, 1 mM β-ME and 5% glycerol) with a protein concentration of 20 nM and a molar dye: protein ratio of approximately 3:1. The mixture was kept at room temperature for 30 min, followed by centrifugation at 15000 g for 10 min at 4°C. A series of 16 1:1 dilutions were prepared using the same buffer, resulting in peptide concentrations ranging from 500 μM to […]. Following a 10 min incubation, the samples were loaded into standard monolith NT.115 capillaries from Nano Temper Technologies. […] Data from three independently pipetted measurements were analysed using MO. […]
(§2) The kinase assay data presented here are the mean ± standard error (SE) of n≥3 of three independent experiments. The Km and Vmax were determined from a direct, nonlinear fit of [V] versus [S] plots using the Michaelis-Menten equation: V=Vmax[S]/Km+[S] using the GraphPad Prism 9.0 software package (GraphPad Software Inc., CA, USA). […]

KDD1 = biological target: T1, KDD1 (Entamoeba histolytica, UniProt C4M2W0, D241A/K147A); test: Microscale Thermophoresis (MST), kinase-dead EhAGCK1 (KDD1); conditions: KDD1 (K147A and D241A), Tris-Cl pH 8, 25°C, peptide 500 μM to 153 nM, n = 6
T1 sequence (C4M2W0 1-433 K147A/D241A): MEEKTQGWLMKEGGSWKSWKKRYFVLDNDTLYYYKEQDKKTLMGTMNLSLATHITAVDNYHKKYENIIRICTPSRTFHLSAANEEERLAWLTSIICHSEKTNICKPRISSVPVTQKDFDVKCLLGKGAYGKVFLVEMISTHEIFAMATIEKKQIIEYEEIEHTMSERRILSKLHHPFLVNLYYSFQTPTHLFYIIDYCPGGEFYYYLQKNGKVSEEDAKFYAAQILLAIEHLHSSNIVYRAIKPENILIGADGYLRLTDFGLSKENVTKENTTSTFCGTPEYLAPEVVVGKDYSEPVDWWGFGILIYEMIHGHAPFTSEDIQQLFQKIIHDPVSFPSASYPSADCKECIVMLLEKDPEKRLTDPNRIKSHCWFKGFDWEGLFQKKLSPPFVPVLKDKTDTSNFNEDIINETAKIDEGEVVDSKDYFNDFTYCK
Procedure: as §1, §2

KDD2 = biological target: T2, KDD2 (Entamoeba histolytica, UniProt C4M3C2, D242A/K147A); test: Microscale Thermophoresis (MST), kinase-dead EhAGCK2 (KDD2); conditions: KDD2 (K147A and D242A), Tris-Cl pH 8, 25°C, peptide 500 μM to 153 nM, n = 6
T2 sequence (C4M3C2 1-434 K147A/D242A): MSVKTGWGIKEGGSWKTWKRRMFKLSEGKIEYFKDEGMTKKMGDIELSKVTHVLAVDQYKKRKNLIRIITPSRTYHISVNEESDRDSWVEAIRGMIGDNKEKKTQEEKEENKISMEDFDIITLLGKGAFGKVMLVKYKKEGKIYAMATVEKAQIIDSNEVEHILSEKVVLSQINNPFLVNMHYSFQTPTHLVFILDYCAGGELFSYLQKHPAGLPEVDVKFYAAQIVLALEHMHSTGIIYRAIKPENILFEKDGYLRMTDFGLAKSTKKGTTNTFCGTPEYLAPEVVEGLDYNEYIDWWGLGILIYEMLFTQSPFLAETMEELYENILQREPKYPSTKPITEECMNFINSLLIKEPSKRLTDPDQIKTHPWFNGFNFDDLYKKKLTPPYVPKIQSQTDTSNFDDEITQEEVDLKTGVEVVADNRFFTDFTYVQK
Procedure: as §1, §2

Sequence	KD range in words (EhAGCK1 WT)	Kd (KDD1)	Kd (KDD2)
SSPSSVPAAQSTTPVNVPK [RhoGEF]	within the nanomolar range	11.9 µM	–
KAGGADYSFNTTSN [Coactosin]	–	–	11.9 µM
